The results in this text go back to patent US20070213359A1 (ACADIA Pharmaceuticals Inc., priority 2005, published 2007).

In the assay the target is Ghrelin receptor (Homo sapiens, UniProt Q92847). Briefly: Receptor Selection and Amplification Technology (R-SAT) assay. It counts as cell-based. Particulars: for IC50: negative logarithm of ligand concentration causing 50% inhibition of constitutive receptor response, transfected NIH3T3 cells, '—' not defined (nd used separately), read-out: RSAT pIC50 (converted); for Emax: read-out: RSAT Eff(%). More on the design: expressed in transfected cells; host or cells: NIH3T3.
Chain of Ghrelin receptor (Q92847 whole entry): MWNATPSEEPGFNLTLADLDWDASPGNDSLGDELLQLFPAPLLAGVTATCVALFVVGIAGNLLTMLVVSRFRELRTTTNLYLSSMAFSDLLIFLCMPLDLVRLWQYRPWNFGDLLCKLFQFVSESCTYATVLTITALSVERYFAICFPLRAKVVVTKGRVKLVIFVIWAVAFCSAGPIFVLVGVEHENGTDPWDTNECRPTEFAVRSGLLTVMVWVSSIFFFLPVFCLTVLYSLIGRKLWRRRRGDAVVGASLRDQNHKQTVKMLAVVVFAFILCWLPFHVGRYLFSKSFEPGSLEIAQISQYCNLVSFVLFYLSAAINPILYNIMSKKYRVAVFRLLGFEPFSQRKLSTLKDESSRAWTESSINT

[1] abbreviates: percent inhibition at saturating ligand, normalized to reference ligand Substance P analog = 100%.

Where two headings read alike, the source gives them in different places.

`CC(=O)c1cn(CCCN2CCCN(Cc3ccccc3Cl)CC2)c2c(C)cccc12`: the IC50 was 1.26 nM. Besides, under setting [1], the Emax stood at 111%.

In the case of `CC(=O)c1cn(CCCN2CCC(c3nc(-c4cccnc4)no3)CC2)c2c(Br)cccc12`, the IC50 is 39.8 nM. In addition, the Emax under setting [1] is 119%.

On to `CCc1cccc2c(C(C)=O)cn(CCCN3CCN(CCOc4ccccc4)CC3)c12`, for which the IC50 is 39.8 nM. In addition, the Emax under setting [1] was 110%.

Take `CC(=O)c1cn(CCCNCCOc2ccccc2)c2c(C)cccc12`: the IC50 is 39.8 nM. The Emax under setting [1] was determined as 100%.

`CC(=O)c1cn(CCCN2CCCN(CCc3ccccc3)CC2)c2c(C#N)cccc12`: the IC50 is 39.8 nM. Further, the Emax under setting [1] was 83%.

As to `CCc1cccc2c(C(C)=O)cn(CCCN3CCC(c4nc(-c5ccncc5)no4)CC3)c12`, the IC50 was 39.8 nM. Moreover, the Emax under setting [1] was 121%.

On to `CC(=O)c1cn(CCCN2C3CCC2CC(CCc2ccc(Cl)cc2)C3)c2c(Br)cccc12` (centres unmarked), for which the IC50 is 39.8 nM. Besides, the Emax under setting [1] turned out to be 106%.

With `COc1cccc2c(C(C)=O)cn(CC(C)CN3C4CCC3CC(CCc3ccccc3)C4)c12` (centres unmarked), the IC50 was 50.1 nM and the Emax is 120%.

On to `COc1cccc2c(C(=O)NCC(C)C)cn(CCCN3CCN(CCOc4ccc(Cl)cc4)CC3)c12`, for which the IC50 is 63.1 nM. Besides, the “RSAT Eff(%)” value under setting [1] is given as 84%.

With `CC(=O)c1cn(CCCN2CCN(c3ncc(C(F)(F)F)cc3Cl)CC2)c2ncccc12`, the IC50 is 63.1 nM. For the same molecule, under setting [1], the Emax worked out at 91%.

Regarding `CC(=O)c1cn(CCCN2CCN(c3ncc(C(F)(F)F)cc3Cl)CC2)c2c(C#N)cccc12`, the IC50 was 79.4 nM. In addition, the Emax under setting [1] amounted to 106%.

For `COc1cccc2c(C(=O)NCC(C)C)cn(CCCN3C4CCC3CC(Oc3ccc(F)cc3)C4)c12` (centres unmarked), the IC50 was 79.4 nM. Further, under setting [1], the “RSAT Eff(%)” value is given as 147%.

With `CC(=O)c1cn(CCCN2C3CCC2CC(CCc2ccc(Cl)cc2)C3)c2c(C)cccc12` (centres unmarked), the IC50 was 100 nM and the Emax was 50%.

With `CC(=O)c1cn(CCCNCCOc2ccccc2)c2c(Cl)cccc12`, the IC50 was 100 nM. Further, the Emax under setting [1] came out at 84%.

As for `CC(=O)c1cn(CCCN2C3CCC2CC(Oc2ccc(F)cc2)C3)c2c(Cl)cccc12` (centres unmarked), the IC50 is 100 nM. In addition, the Emax under setting [1] amounted to 87%.

Consider `CCc1cccc2c(C(C)=O)cn(CCCN3C4CCC3CC(Oc3ccccc3Cl)C4)c12` (centres unmarked), for which the IC50 is 100 nM. For the same molecule, the Emax under setting [1] came to 101%.

On to `O=C(c1cn(CCCN2CCCN(Cc3ccc(F)cc3)CC2)c2ncccc12)C(F)(F)F`, for which the IC50 was 100 nM. Moreover, the Emax under setting [1] was 83%.

As to `CCCCC(=O)c1cn(CCCN2CCC(Oc3ccc(F)cc3)CC2)c2ccc(OC)cc12`, the IC50 was 100 nM and the Emax is 91%.

As for `CCCOC1CCN(CCCn2cc(C(=O)CC(C)C)c3ccccc32)CC1`, the IC50 is 126 nM. The Emax under setting [1] worked out at 81%.

With `CCCCC(=O)c1cn(CCCN2C3CCC2CC(Oc2ccc(Cl)cc2)C3)c2ccc(OC)cc12` (centres unmarked), the IC50 is 126 nM. For the same molecule, the Emax under setting [1] came out at 110%.

On to `COc1cccc2c(C(C)=O)cn(CCCN3CCC(O)(Cc4ccccc4)CC3)c12`, for which the IC50 was 126 nM. For the same molecule, the Emax under setting [1] was determined as 106%.

Turning to `CCCCC(=O)c1cn(CCCN2CCC(OCCC)CC2)c2ccc(OC)cc12`, the IC50 was 126 nM. Besides, the Emax under setting [1] amounted to 114%.

As to `O=C(c1cn(CCCN2CCN(Cc3ccc(Cl)cc3Cl)CC2)c2ncccc12)C(F)(F)F`, the IC50 is 126 nM. Under setting [1], the Emax came to 78%.

For `CCCCC(=O)c1cn(CCCN2CCC3c4cc(OC)ccc4NC3C2)c2ccc(OC)cc12` (centres unmarked), the IC50 is 126 nM. Further, under setting [1], the Emax is 91%.

`COc1cccc2c(C(=O)NCC(C)C)cn(CCCN3CCC(c4nc(-c5ccncc5)no4)CC3)c12`: the IC50 is 158 nM. Moreover, the “RSAT Eff(%)” value under setting [1] is given as 93%.

As for `CCc1cccc2c(C(C)=O)cn(CCCN3CCN(c4ncc(C(F)(F)F)cc4Cl)CC3)c12`, the IC50 is 158 nM. Under setting [1], the Emax amounted to 90%.

With `COc1ccc2c(C(C)=O)cn(CCCN3CCC(Oc4ccc(F)cc4)CC3)c2c1`, the IC50 was 158 nM. For the same molecule, the Emax under setting [1] turned out to be 70%.

For `CCCCC(=O)c1cn(CCCN2CCC(CCCC)CC2)c2ccc(OC)cc12`, the IC50 is 158 nM. Further, under setting [1], the Emax amounted to 104%.

In the case of `CCC(=O)c1cn(CCCN2CCC(c3nc4ccccc4s3)CC2)c2ccccc12`, the IC50 is 158 nM. Also, the Emax under setting [1] came out at 104%.

For the molecule `COc1cccc2c(C(C)=O)cn(CC(C)CN3CCN(c4ncc(C(F)(F)F)cc4Cl)CC3)c12` (centres unmarked), the IC50 is 158 nM. The Emax under setting [1] is 95%.

For the molecule `CCc1cccc2c(C(C)=O)cn(CCCNC3Cc4ccccc4C3)c12`, the IC50 is 158 nM. Besides, the Emax under setting [1] is 98%.

As for `CC(C)CC(=O)c1cn(CCCN2C3CCC2CC(OC2=CC=C(Cl)CC2)C3)c2ccccc12` (centres unmarked), the IC50 is 158 nM and the Emax was 137%.

Take `CC(=O)c1cn(CCCN2CCN(Cc3ccc(Cl)cc3Cl)CC2)c2c(C)cccc12`: the IC50 was 158 nM. In addition, the Emax under setting [1] was 120%.

On to `CC(=O)c1cn(CCCN2CCC(Oc3ccc(F)cc3)CC2)c2ccc(Br)cc12`, for which the IC50 is 158 nM. Moreover, under setting [1], the Emax was 75%.

`CC(C)CC(=O)c1cn(CCCN2C3CCC2CC(OCC2CC2)C3)c2ccccc12` (centres unmarked): the IC50 is 158 nM. Also, under setting [1], the Emax was 129%.

For the molecule `COc1ccc2c(C(C)=O)cn(CCCN3C4CCC3CC(OCC3CC3)C4)c2c1` (centres unmarked), the IC50 was 158 nM. For the same molecule, the Emax under setting [1] turned out to be 93%.

Turning to `COc1cccc2c(C(C)=O)cn(CCCN3CCN(C(C)c4ccccc4)CC3)c12` (centres unmarked), the IC50 is 158 nM. Moreover, the Emax under setting [1] worked out at 114%.

Take `COc1cccc2c(C(C)=O)cn(CC(C)CN3CCN(Cc4ccc(Cl)cc4Cl)CC3)c12` (centres unmarked): the IC50 was 200 nM. Also, under setting [1], the Emax turned out to be 78%.

`CC(=O)c1cn(CCCN2CCC(c3nc(-c4cccnc4)no3)CC2)c2c(C)cccc12`: the IC50 was 200 nM. Under setting [1], the Emax turned out to be 103%.

On to `CC(=O)c1cn(CC(O)CN2CCC(c3nc4ccccc4s3)CC2)c2ccccc12` (centres unmarked), for which the IC50 is 200 nM. In addition, the Emax under setting [1] was determined as 58%.

As to `CC(=O)c1cn(CCCN2CCN(CCOc3ccccc3)CC2)c2c(Cl)cccc12`, the IC50 was 200 nM. The Emax under setting [1] came to 91%.

As to `CCCCC(=O)c1cn(CCCN2C3CCC2CC(OCC2CC2)C3)c2ccc(OC)cc12` (centres unmarked), the IC50 is 200 nM and the Emax came to 132%.

For `CCc1cccc2c(C(C)=O)cn(CCCN3C4CCC3CC(Oc3ccc(F)cc3)C4)c12` (centres unmarked), the IC50 is 200 nM. The Emax under setting [1] worked out at 98%.

On to `CC(=O)c1cn(CC(O)CN2CCC(Oc3ccc(F)cc3)CC2)c2ccccc12` (centres unmarked), for which the IC50 was 200 nM. For the same molecule, the Emax under setting [1] stood at 74%.

`COc1ccc2c(C(C)=O)cn(CCCN3CCC(Oc4ccccc4Cl)CC3)c2c1`: the IC50 was 251 nM. Moreover, under setting [1], the Emax came out at 88%.

Consider `CC(=O)c1cn(CCN2C3CCC2CC(OCC2CC2)C3)c2ccccc12` (centres unmarked), for which the IC50 was 251 nM. The Emax under setting [1] worked out at 54%.

`CC(=O)c1cn(CCCN2CCN(C(C)c3ccccc3)CC2)c2cc(Br)ccc12` (centres unmarked): the IC50 was 251 nM. Besides, the Emax under setting [1] came out at 93%.

Turning to `CC(=O)c1cn(CCCN2C3CCC2CC(OCC2CC2)C3)c2ccc(Br)cc12` (centres unmarked), the IC50 was 251 nM. Moreover, the Emax under setting [1] was determined as 102%.

Consider `CCCON1CCN(CCCn2cc(C(=O)C(F)(F)F)c3ccccc32)CC1`, for which the IC50 is 251 nM. Moreover, the Emax under setting [1] worked out at 99%.

On to `CCc1cccc2c(C(C)=O)cn(CCCN3CCN(Cc4ccc(Cl)cc4Cl)CC3)c12`, for which the IC50 is 251 nM. Under setting [1], the Emax stood at 106%.

Take `CC(=O)c1cn(CCCN2CCC(Oc3ccccc3Cl)CC2)c2c(Cl)cccc12`: the IC50 is 251 nM. In addition, the Emax under setting [1] was 97%.

For the molecule `CCCCC[C@H]1C[C@H]2CC[C@@H](C1)N2CCCn1cc(C(C)=O)c2cccc(C)c21`, the IC50 is 251 nM. Also, the Emax under setting [1] turned out to be 105%.

On to `CC(c1ccccc1)N1CCN(CCCn2cc(C(=O)C(F)(F)F)c3ccccc32)CC1` (centres unmarked), for which the IC50 was 251 nM. Besides, under setting [1], the Emax is 92%.

In the case of `O=C(c1cn(CCCN2C3CCC2CC(Oc2ccc(Cl)cc2)C3)c2ccccc12)C(F)(F)F` (centres unmarked), the IC50 was 251 nM. Moreover, the Emax under setting [1] was determined as 97%.

Consider `CCCCC(=O)c1cn(CCCN2CCC(Oc3ccccc3Cl)CC2)c2ccc(OC)cc12`, for which the IC50 was 251 nM. For the same molecule, the Emax under setting [1] is 92%.

`CCCOC1CCN(CCCn2cc(C(C)=O)c3ccc(Br)cc32)CC1`: the IC50 is 251 nM. Besides, the Emax under setting [1] is 107%.

For the molecule `CC(=O)c1cn(CCCN2CCC(c3nc(-c4ccncc4)no3)CC2)c2c(Cl)cccc12`, the IC50 is 251 nM. In addition, the Emax under setting [1] came to 108%.

For the molecule `CC(=O)c1cn(CCCN2CCCN(CCc3ccccc3)CC2)c2ncccc12`, the IC50 was 251 nM. In addition, the Emax under setting [1] was found to be 84%.

In the case of `CCC(=O)c1cn(CCCN2CCC(c3ccccc3OC)CC2)c2ccccc12`, the IC50 was 316 nM. For the same molecule, the Emax under setting [1] is 59%.

With `CC(=O)c1cn(CCCN2CCC3(CC2)CC(=O)c2ccccc2O3)c2c(C)cccc12`, the IC50 was 316 nM. Moreover, the Emax under setting [1] came to 71%.

As to `COc1cccc2c(C(C)=O)cn(CCCN3CCC4(CC3)C(=O)NCN4c3ccccc3)c12`, the IC50 was 316 nM and the Emax was found to be 38%.

Consider `CC(C)CC(=O)c1cn(CCCN2CCC(Oc3ccc(Cl)cc3)CC2)c2ccccc12`, for which the IC50 is 316 nM. Further, the Emax under setting [1] stood at 112%.

For the molecule `CCCCC(=O)c1cn(CCCN2CCC(c3ccccc3OC)CC2)c2ccc(OC)cc12`, the IC50 was 316 nM. In addition, under setting [1], the Emax came out at 101%.

Regarding `CCC(=O)c1cn(CCCN2CCC(Oc3ccccc3Cl)CC2)c2ccccc12`, the IC50 was 316 nM. Moreover, the Emax under setting [1] turned out to be 76%.
